According to ChEMBL document CHEMBL2380212, “Synthesis, single crystal and antitumor activities of benzimidazole-quinazoline hybrids” (Bioorg Med Chem Lett, 2013):

How the values were obtained:
[1] = system: BT-549; experiment: Cytotoxicity against human BT549 cells at 10 uM after 48 hrs by SRB assay; assay type: functional; settings: BT-549, 48 h, read-out: GI
[2] = system: T47D; experiment: Cytotoxicity against human T47D cells at 10 uM after 48 hrs by SRB assay; assay type: functional; settings: read-out: GI
[3] = system: MCF7; experiment: Cytotoxicity against human MCF7 cells at 10 uM after 48 hrs by SRB assay; assay type: functional; settings: MCF7, 48 h, read-out: GI
[4] = system: MDA-MB-231; experiment: Cytotoxicity against human MDA-MB-231 cells at 10 uM after 48 hrs by SRB assay; assay type: functional; settings: MDA-MB-231, 48 h, read-out: GI
[5] = system: DU-145; experiment: Cytotoxicity against human DU145 cells at 10 uM after 48 hrs by SRB assay; assay type: functional; settings: DU-145, 48 h, read-out: GI
[6] = system: UO-31; experiment: Cytotoxicity against human UO31 cells at 10 uM after 48 hrs by SRB assay; assay type: functional; settings: UO-31, 48 h, read-out: GI
[7] = system: PC-3; experiment: Cytotoxicity against human PC3 cells at 10 uM after 48 hrs by SRB assay; assay type: functional; settings: PC-3, 48 h, read-out: GI
[8] = system: TK-10; experiment: Cytotoxicity against human TK10 cells at 10 uM after 48 hrs by SRB assay; assay type: functional; settings: TK-10, 48 h, read-out: GI
[9] = system: RXF 393; experiment: Cytotoxicity against human RXF393 cells at 10 uM after 48 hrs by SRB assay; assay type: functional; settings: RXF 393, 48 h, read-out: GI
[10] = system: SN12C; experiment: Cytotoxicity against human SN12C cells at 10 uM after 48 hrs by SRB assay; assay type: functional; settings: read-out: GI
[11] = system: CAKI-1; experiment: Cytotoxicity against human Caki1 cells at 10 uM after 48 hrs by SRB assay; assay type: functional; settings: CAKI-1, 48 h, read-out: GI
[12] = system: ACHN; experiment: Cytotoxicity against human ACHN cells at 10 uM after 48 hrs by SRB assay; assay type: functional; settings: read-out: GI
[13] = system: 786-0; experiment: Cytotoxicity against human 786-0 cells at 10 uM after 48 hrs by SRB assay; assay type: functional; settings: 786-0, 48 h, read-out: GI
[14] = system: SK-OV-3; experiment: Cytotoxicity against human SKOV3 cells at 10 uM after 48 hrs by SRB assay; assay type: functional; settings: SK-OV-3, 48 h, read-out: GI
[15] = system: NCI/ADR-RES; experiment: Cytotoxicity against human NCI/ADR-RES cells at 10 uM after 48 hrs by SRB assay; assay type: functional; settings: read-out: GI
[16] = system: OVCAR-5; experiment: Cytotoxicity against human OVCAR5 cells at 10 uM after 48 hrs by SRB assay; assay type: functional; settings: OVCAR-5, 48 h, read-out: GI
[17] = system: OVCAR-4; experiment: Cytotoxicity against human OVCAR4 cells at 10 uM after 48 hrs by SRB assay; assay type: functional; settings: OVCAR-4, 48 h, read-out: GI
[18] = system: OVCAR-3; experiment: Cytotoxicity against human OVCAR3 cells at 10 uM after 48 hrs by SRB assay; assay type: functional; settings: OVCAR-3, 48 h, read-out: GI
[19] = system: IGROV-1; experiment: Cytotoxicity against human IGROV1 cells at 10 uM after 48 hrs by SRB assay; assay type: functional; settings: IGROV-1, 48 h, read-out: GI
[20] = system: UACC-62; experiment: Cytotoxicity against human UACC62 cells at 10 uM after 48 hrs by SRB assay; assay type: functional; settings: UACC-62, 48 h, read-out: GI
[21] = system: UACC-257; experiment: Cytotoxicity against human UACC257 cells at 10 uM after 48 hrs by SRB assay; assay type: functional; settings: UACC-257, 48 h, read-out: GI
[22] = system: SK-MEL-5; experiment: Cytotoxicity against human SK-MEL-5 cells at 10 uM after 48 hrs by SRB assay; assay type: functional; settings: SK-MEL-5, 48 h, read-out: GI
[23] = system: SK-MEL-2; experiment: Cytotoxicity against human SK-MEL-2 cells at 10 uM after 48 hrs by SRB assay; assay type: functional; settings: SK-MEL-2, 48 h, read-out: GI
[24] = system: MDA-MB-435; experiment: Cytotoxicity against human MDA-MB-435 cells at 10 uM after 48 hrs by SRB assay; assay type: functional; settings: MDA-MB-435, 48 h, read-out: GI
[25] = system: Malme-3M; experiment: Cytotoxicity against human MALME-3M cells at 10 uM after 48 hrs by SRB assay; assay type: functional; settings: read-out: GI
[26] = system: U-251; experiment: Cytotoxicity against human U251 cells at 10 uM after 48 hrs by SRB assay; assay type: functional; settings: U-251, 48 h, read-out: GI
[27] = system: LOX IMVI; experiment: Cytotoxicity against human LOXIMVI cells at 10 uM after 48 hrs by SRB assay; assay type: functional; settings: read-out: GI
[28] = system: SNB-75; experiment: Cytotoxicity against human SNB75 cells at 10 uM after 48 hrs by SRB assay; assay type: functional; settings: SNB-75, 48 h, read-out: GI
[29] = system: SNB-19; experiment: Cytotoxicity against human SNB19 cells at 10 uM after 48 hrs by SRB assay; assay type: functional; settings: SNB-19, 48 h, read-out: GI
[30] = system: SF-295; experiment: Cytotoxicity against human SF295 cells at 10 uM after 48 hrs by SRB assay; assay type: functional; settings: SF-295, 48 h, read-out: GI
[31] = system: SF-268; experiment: Cytotoxicity against human SF268 cells at 10 uM after 48 hrs by SRB assay; assay type: functional; settings: SF-268, 48 h, read-out: GI
[32] = system: SW-620; experiment: Cytotoxicity against human SW620 cells at 10 uM after 48 hrs by SRB assay; assay type: functional; settings: SW-620, 48 h, read-out: GI
[33] = system: KM12; experiment: Cytotoxicity against human KM12 cells at 10 uM after 48 hrs by SRB assay; assay type: functional; settings: KM12, 48 h, read-out: GI
[34] = system: HT-29; experiment: Cytotoxicity against human HT-29 cells at 10 uM after 48 hrs by SRB assay; assay type: functional; settings: HT-29, 48 h, read-out: GI
[35] = system: HCT-15; experiment: Cytotoxicity against human HCT15 cells at 10 uM after 48 hrs by SRB assay; assay type: functional; settings: HCT-15, 48 h, read-out: GI
[36] = system: HCT-116; experiment: Cytotoxicity against human HCT116 cells at 10 uM after 48 hrs by SRB assay; assay type: functional; settings: HCT-116, 48 h, read-out: GI
[37] = system: COLO 205; experiment: Cytotoxicity against human COLO205 cells at 10 uM after 48 hrs by SRB assay; assay type: functional; settings: COLO 205, 48 h, read-out: GI
[38] = system: NCI-H522; experiment: Cytotoxicity against human NCI-H522 cells at 10 uM after 48 hrs by SRB assay; assay type: functional; settings: NCI-H522, 48 h, read-out: GI
[39] = system: NCI-H460; experiment: Cytotoxicity against human NCI-H460 cells at 10 uM after 48 hrs by SRB assay; assay type: functional; settings: NCI-H460, 48 h, read-out: GI
[40] = system: NCI-H322M; experiment: Cytotoxicity against human NCI-H322M cells at 10 uM after 48 hrs by SRB assay; assay type: functional; settings: read-out: GI
[41] = system: NCI-H226; experiment: Cytotoxicity against human NCI-H226 cells at 10 uM after 48 hrs by SRB assay; assay type: functional; settings: NCI-H226, 48 h, read-out: GI
[42] = system: NCI-H23; experiment: Cytotoxicity against human NCI-H23 cells at 10 uM after 48 hrs by SRB assay; assay type: functional; settings: NCI-H23, 48 h, read-out: GI
[43] = system: HOP-62; experiment: Cytotoxicity against human HOP62 cells at 10 uM after 48 hrs by SRB assay; assay type: functional; settings: HOP-62, 48 h, read-out: GI
[44] = system: HOP-92; experiment: Cytotoxicity against human HOP92 cells at 10 uM after 48 hrs by SRB assay; assay type: functional; settings: HOP-92, 48 h, read-out: GI
[45] = Cytotoxicity against human EKVX cells at 10 uM after 48 hrs by SRB assay; assay type: functional; settings: read-out: GI
[46] = system: A549; experiment: Cytotoxicity against human A549 cells at 10 uM after 48 hrs by SRB assay; assay type: functional; settings: A549, 48 h, read-out: GI
[47] = system: SR; experiment: Cytotoxicity against human SR cells at 10 uM after 48 hrs by SRB assay; assay type: functional; settings: read-out: GI
[48] = system: MOLT-4; experiment: Cytotoxicity against human MOLT4 cells at 10 uM after 48 hrs by SRB assay; assay type: functional; settings: MOLT-4, 48 h, read-out: GI
[49] = system: RPMI-8226; experiment: Cytotoxicity against human RPMI8226 cells at 10 uM after 48 hrs by SRB assay; assay type: functional; settings: RPMI-8226, 48 h, read-out: GI
[50] = system: K562; experiment: Cytotoxicity against human K562 cells at 10 uM after 48 hrs by SRB assay; assay type: functional; settings: K562, 48 h, read-out: GI
[51] = system: HL-60(TB); experiment: Cytotoxicity against human HL-60(TB) cells at 10 uM after 48 hrs by SRB assay; assay type: functional; settings: HL-60, 48 h, read-out: GI
[52] = system: CCRF-CEM; experiment: Cytotoxicity against human CCRF-CEM cells at 10 uM after 48 hrs by SRB assay; assay type: functional; settings: read-out: GI
[53] = n-Octanol-phosphate buffer partition coefficient, log P of the compound at pH 7.4 by shake flask method; assay type: physicochemical

O=c1[nH]cc(F)c(=O)[nH]1 [FLUOROURACIL]
inhibition of growth at 10 µM [1]: 37.8%
inhibition of growth at 10 µM [2]: 56.7%
inhibition of growth at 10 µM [3]: 11.5%
inhibition of growth at 10 µM [4]: 78.1%
inhibition of growth at 10 µM [5]: 35.5%
inhibition of growth at 10 µM [6]: 41.3%
inhibition of growth at 10 µM [7]: 58.2%
inhibition of growth at 10 µM [8]: 66.9%
inhibition of growth at 10 µM [9]: 34.3%
inhibition of growth at 10 µM [10]: 54%
inhibition of growth at 10 µM [11]: 39.4%
inhibition of growth at 10 µM [12]: 39.3%
inhibition of growth at 10 µM [13]: 48.7%
inhibition of growth at 10 µM [14]: 77.5%
inhibition of growth at 10 µM [15]: 47.6%
inhibition of growth at 10 µM [16]: 44.3%
inhibition of growth at 10 µM [17]: 59.4%
inhibition of growth at 10 µM [18]: 47.4%
inhibition of growth at 10 µM [19]: 51.2%
inhibition of growth at 10 µM [20]: 39.7%
inhibition of growth at 10 µM [21]: 19.5%
inhibition of growth at 10 µM [22]: 33.7%
inhibition of growth at 10 µM [23]: 95.5%
inhibition of growth at 10 µM [24]: 36.6%
inhibition of growth at 10 µM [25]: 58.2%
inhibition of growth at 10 µM [26]: 50.3%
inhibition of growth at 10 µM [27]: 30.4%
inhibition of growth at 10 µM [28]: 65.9%
inhibition of growth at 10 µM [29]: 65.9%
inhibition of growth at 10 µM [30]: 69.1%
inhibition of growth at 10 µM [31]: 59%
inhibition of growth at 10 µM [32]: 50.1%
inhibition of growth at 10 µM [33]: 40.7%
inhibition of growth at 10 µM [34]: 27.1%
inhibition of growth at 10 µM [35]: 26.5%
inhibition of growth at 10 µM [36]: 17.8%
inhibition of growth at 10 µM [37]: 40.2%
inhibition of growth at 10 µM [38]: 58%
inhibition of growth at 10 µM [39]: 13%
inhibition of growth at 10 µM [40]: 59.5%
inhibition of growth at 10 µM [41]: 69.5%
inhibition of growth at 10 µM [42]: 39%
inhibition of growth at 10 µM [43]: 47.8%
inhibition of growth at 10 µM [44]: 50.6%
inhibition of growth at 10 µM [45]: 58.4%
inhibition of growth at 10 µM [46]: 34.2%
inhibition of growth at 10 µM [47]: 24.8%
inhibition of growth at 10 µM [48]: 43.1%
inhibition of growth at 10 µM [49]: 41.4%
inhibition of growth at 10 µM [50]: 42.3%
inhibition of growth at 10 µM [51]: 47.9%
inhibition of growth at 10 µM [52]: 57.1%

C=CCn1c(C)nc2ccc(Nc3nc(N4CCCCC4)nc4ccccc34)cc21
logD [53]: 2.72
